# Experimental data from patent US20240132458A1, “NLRP3 INFLAMMASOME SMALL-MOLECULE INHIBITOR FOR TREATMENT OF ALZHEIMER'S DISEASE” (AJOU UNIVERSITY INDUSTRY-ACADEMIC COOPERATION FOUNDATION, priority 2021, published 2024).
# “Also recorded” adds a separate entry of the source.
# Legend:
# [1] = system: NLRP3, NLRC4; details: approximate inhibitory concentration, literature; cited from earlier work
# [2] = system: NLRP3; details: approximate inhibitory concentration, literature; cited from earlier work
# [3] = system: AD model mice (Aβ1-42 injected); experiment: Y-maze test in AD model (spatial working memory); type: in vivo, C57BL/6 mice; details: 3 days/week, vs vehicle-treated and untreated mice
# Description: (§1) 6-week-old male C57BL/6 mice (19 to 22 g) were used, and 5 mice per cage were bred in a feedlot. To create an AD model, experimental animals were administered isoflurane by inhalation, and then injected with Aβ1-42 (5 μL) using a Hamilton microsyringe with a 26-gauge needle. The AD model mice were trained for 20 minutes/mouse for 2 days before the experimental procedure, and then subjected to Y-maze tests and novel object recognition tests (for cognitive evaluation). Behavioral evaluation was performed 7 days after Aβ1-42 injection. The animals were subdivided into AD, NIC7-treated, vehicle (DMSO)-treated, donepezil-treated (positive control) and normal (no-disease) groups. Cognitive evaluation was performed on days 7, 14, 21 and 28 after injection.
# The alteration in spatial cognitive behavior was assessed using a Y-maze apparatus with three horizontal identical arms (35 cm long×15 cm high×5 cm wide) symmetrically arranged at 120° to each other. The evaluation was performed in the Y-maze test 7 days after Aβ injection. After introduction into the Y-maze, each animal was allowed to move freely for 2 minutes and then measured for 5 minutes. The test subjects tended to enter an arm different from the arm they had previously visited. The number of arm entries and triads was recorded to calculate the percentage of alternation. […]
# [4] = Body weight in AD model; type: in vivo, C57BL/6 mice; details: NIC7 100 nmol/g intraperitoneally; compared to the untreated mice
# Description: as §1
# [5] = system: NLRP3 signaling pathway (IL-1β, caspase 1); experiment: Western blot of the NLRP3 signaling pathway; type: cell-based, human; details: 10 μM, PMA-differentiated THP-1, LPS/nigericin
# Description: Cytoplasmic proteins were extracted using NE-PERTM Nuclear and Cytoplasmic Extraction Reagent (Thermo Fisher Scientific, Inc.), and the total-protein was measured using a Bicinchoninic (BCA) assay kit (Sigma-Aldrich Co.). The proteins were separated by SDS-PAGE and transferred to a membrane using a Mini-PROTEAN Tetra Cell and Mini Trans-Blot Electrophoretic Transfer Cell System (Bio-Rad Laboratories, Hercules, CA, USA). The membranes were blocked with skim milk (5%) for 1 hour, and immunoblotted with antibodies against NLRP3, IL-1β, mature IL-1β (Cell Signaling Technology Inc., Danvers, MA, USA), caspase 1 and β-actin (Santa Cruz Biotechnology Inc., Dallas, TX, USA) at 4° C. overnight. After washing with PBS supplemented with 0.1% of Tween 20, the membranes were treated with a peroxidase-conjugated anti-rabbit or anti-mouse IgG antibody (1:1,000) for 2 hours at room temperature. The SuperSignal West Pico ECL solution (Thermo Fisher Scientific, Inc.) was used to detect protein bands that were visualized on a ChemiDocm Touch Imaging System (Bio-Rad Laboratories).
# [6] = system: AD model mice (Aβ1-42 injected); experiment: Novel object recognition test in AD model; type: in vivo, C57BL/6 mice; details: vs vehicle-treated or untreated mice
# Description: as §1
# A novel object recognition test was performed in an open field box containing two identical objects. Animals were first familiarized with these identical objects for 2 minutes, and then one of the objects was replaced with a novel object, followed by reading for 5 minutes. The time spent with an identical object (tA) and the time spent with a novel object (tB) were calculated, and the recognition index ratio was calculated via the formula (tB/(tA+tB))×100.
# [7] = target: T1, NLRP3 (Homo sapiens, UniProt Q96P20); experiment: Inhibition of NLRP3 by IL-1β secretion level (ELISA); type: cell-based; details: PMA-differentiated THP-1, LPS (10 ng/mL) 4 hours, compound 1 hour, nigericin (10 μM) 1 hour
# T1 construct: THP-1 cells (10^5/well) were differentiated with PMA (80 nM, 48 hours) in a 96-well plate; endogenous in cells; host or cells: PMA-differentiated, LPS-primed THP-1 cells
# T1 sequence (Q96P20 whole entry): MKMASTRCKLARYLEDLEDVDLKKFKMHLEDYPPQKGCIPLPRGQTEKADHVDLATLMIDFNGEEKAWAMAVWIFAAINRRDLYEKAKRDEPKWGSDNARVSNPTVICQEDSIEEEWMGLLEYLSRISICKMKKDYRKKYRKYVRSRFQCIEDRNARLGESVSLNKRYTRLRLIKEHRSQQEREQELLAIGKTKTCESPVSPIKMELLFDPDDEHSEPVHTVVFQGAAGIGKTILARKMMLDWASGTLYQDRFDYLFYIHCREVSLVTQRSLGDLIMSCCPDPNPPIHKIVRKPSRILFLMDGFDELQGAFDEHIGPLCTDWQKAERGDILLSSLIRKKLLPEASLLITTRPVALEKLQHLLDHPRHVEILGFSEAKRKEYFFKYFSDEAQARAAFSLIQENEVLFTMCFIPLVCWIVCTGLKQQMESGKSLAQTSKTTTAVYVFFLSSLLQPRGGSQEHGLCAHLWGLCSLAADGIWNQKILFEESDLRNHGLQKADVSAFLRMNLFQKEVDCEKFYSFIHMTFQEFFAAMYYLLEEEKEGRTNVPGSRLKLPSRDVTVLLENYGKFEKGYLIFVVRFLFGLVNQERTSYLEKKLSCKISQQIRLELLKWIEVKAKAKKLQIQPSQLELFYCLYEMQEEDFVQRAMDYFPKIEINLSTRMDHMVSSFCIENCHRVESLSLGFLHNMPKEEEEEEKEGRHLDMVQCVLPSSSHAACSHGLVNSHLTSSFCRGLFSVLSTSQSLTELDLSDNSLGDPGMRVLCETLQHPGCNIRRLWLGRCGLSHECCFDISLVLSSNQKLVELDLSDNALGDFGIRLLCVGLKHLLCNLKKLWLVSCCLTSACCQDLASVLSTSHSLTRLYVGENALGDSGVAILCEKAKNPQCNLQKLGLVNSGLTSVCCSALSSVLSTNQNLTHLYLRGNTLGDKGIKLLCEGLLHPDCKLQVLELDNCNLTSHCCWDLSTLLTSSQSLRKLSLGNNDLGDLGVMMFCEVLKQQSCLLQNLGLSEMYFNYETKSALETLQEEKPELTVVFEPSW
# Description: THP-1 cells (10^5/well) were differentiated with PMA (80 nM, 48 hours) in a 96-well plate (BD Biosciences). The differentiated macrophages were primed with LPS (10 ng/mL) for 4 hours. Thereafter, the cells were treated with each compound for 1 hour in a serum-free medium, followed by activation of NLRP3 by nigericin for an additional 1 hour. The supernatant was collected and the inhibition of human IL-1β secretion was analyzed using the Human IL-1β Uncoated ELISA Kit (Thermo Fisher Scientific, Inc.). A microplate spectrophotometer system (Molecular Devices) was employed to read absorbance in the plate.
# [8] = Microsomal stability; type: in vitro ADME, human; details: for Microsomal stability (% at 30 min): Human liver microsomes 0.5 mg/mL, 1 μM compound, 37° C.
# Description: Stock solutions of NIC7 and NIC7w were prepared at a concentration of 10 mM in DMSO, and were diluted to a concentration of 100 μM with 100% methanol as a working solution. These NIC7 and NIC7w solutions were diluted to a concentration of 1 μM with potassium phosphate buffer (pH 7.4), and then each solution was incubated with 0.5 mg/mL liver microsomes (human) at 37° C. for 5 minutes. The reaction was initiated by adding a NADPH-generating system (3.3 mM glucose-6-phosphate (G6P), 1.3 mM β-NADP^+, 3.3 mM MgCl2, and 0.4 U/mL glucose-6-phosphate dehydrogenase (G6PD)) at 37° C. The reaction was stopped at 0 and 30 minutes using cold acetonitrile containing carbamazepine as an internal standard at 20 ng/mL. After vortexing and centrifugation, the supernatant was analyzed with liquid chromatography with tandem mass spectrometry (LC-MS/MS). All microsomal assays were performed in duplicate.
# After sample preparation, 0.1 mL acetonitrile containing 20 ng/mL internal standard was added to a 50 μL aliquot of each biological sample. After vortexing and centrifugation at 12,000 rpm for 10 minutes, 10 μL of the supernatant was analyzed with LC-MS/MS.
# In the LC system, a reversed-phase C18 column (BEH C18, 2.1 mm×100 mm i.d., 1.7 μm; Waters, Ireland) was maintained at 4° C. The composition of the mobile phase was changed from 80% of 0.1% formic acid in water to 80% of 0.1% formic acid in acetonitrile for 3 minutes, and then switched to 80% of 0.1% formic acid in water for 3.1 minutes, and maintained at 0.5 at mL/min for 5 minutes. The analytes were monitored on an API5500 triple quadrupole mass spectrometer MS (AB Sciex, Foster City, CA) equipped with a turbo ion spray interface for electrospray ionization and operated in positive ion mode at 5.5 kV and 500° C. at 50 L/min of atomizing gas flow, 50 L/min of turbo ion-spray gas flow, 20 L/min of curtain gas flow, 5.5 kV of ring voltage and 5 Torr of collision gas (nitrogen) pressure. The mass transitions for NIC7, NIC7w and the internal standard were m/z 481.1→165.0 (collision energy, 45 eV), 453.1→165.0 (41.0 eV) and 236.9→194.0 (29 eV), respectively, in the multiple reaction monitoring mode.
# [9] = target: T2, CYP3A4 (Homo sapiens, UniProt P08684); experiment: Cytochrome P450 inhibition; type: in vitro ADME; details: probe midazolam (1′-hydroxylation), pooled human liver microsomes 0.25 mg/mL, read-out: CYP inhibition (% at 10 μM) 3A4
# T2 construct: pooled human liver microsomes were assayed at 0.25 mg/mL concentration; from tissue; host or cells: pooled human liver microsomes
# T2 sequence (P08684 whole entry): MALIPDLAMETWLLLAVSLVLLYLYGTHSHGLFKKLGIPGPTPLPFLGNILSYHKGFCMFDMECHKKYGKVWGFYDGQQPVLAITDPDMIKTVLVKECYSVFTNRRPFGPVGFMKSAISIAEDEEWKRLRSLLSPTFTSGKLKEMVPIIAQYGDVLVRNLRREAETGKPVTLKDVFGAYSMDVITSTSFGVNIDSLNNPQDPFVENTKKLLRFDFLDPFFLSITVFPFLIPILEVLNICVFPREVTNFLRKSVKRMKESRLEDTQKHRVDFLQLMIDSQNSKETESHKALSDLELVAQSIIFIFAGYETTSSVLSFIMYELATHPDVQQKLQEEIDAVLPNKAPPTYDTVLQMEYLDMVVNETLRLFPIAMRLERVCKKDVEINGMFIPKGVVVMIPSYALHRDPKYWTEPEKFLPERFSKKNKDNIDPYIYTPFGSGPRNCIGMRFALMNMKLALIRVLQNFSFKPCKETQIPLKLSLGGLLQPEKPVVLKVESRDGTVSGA
# Description: (§2) The inhibitory effects of NIC7 and NIC7w on the metabolism of the five major P450 probe substrates were evaluated using a previously reported method (S. Seino, Diabetologia 55, 2096-2108 (2012)) with minor modifications. A cocktail of substrates (phenacetin O-deethylase, tolbutamide 4-hydroxylase, mephenytoin 4-hydroxylase, dextromethorphan O-demethylase, and midazolam 1′-hydroxylase) was used for five major P450 enzymes, CYP1A2, CYP2C9, CYP2C19, CYP2D6, and CYP3A4, respectively. NIC7 and NIC7w were prepared at a concentration of 10 mM in DMSO and dissolved in methanol at a concentration of 1 mM. In all experiments, the final concentration of an organic solvent (methanol) for cocktail incubation was set at 1.0% (v/v). Both NIC7 and NIC7w were used at 10 μM, and pooled human liver microsomes were assayed at 0.25 mg/mL concentration. The substrate cocktail solution was incubated with the microsomes for 5 min at 37° C. The reaction was initiated by adding an NADPH-generating system (the same as described in Examples 1-5) at 37° C. and 1300 rpm. The reaction was stopped at 10 min by the addition of cold acetonitrile containing carbamazepine as an internal standard at 20 ng/mL. After vortexing and centrifugation, the supernatant was analyzed with LC-MS/MS. All microsomal incubations were performed in triplicate.
# [10] = target: T3, CYP2C19 (Homo sapiens, UniProt P33261); experiment: Cytochrome P450 inhibition; type: in vitro ADME; details: probe mephenytoin (4-hydroxylation), pooled human liver microsomes 0.25 mg/mL, read-out: CYP inhibition (% at 10 μM) 2C19
# T3 construct: pooled human liver microsomes were assayed at 0.25 mg/mL concentration; from tissue; host or cells: pooled human liver microsomes
# T3 sequence (P33261 whole entry): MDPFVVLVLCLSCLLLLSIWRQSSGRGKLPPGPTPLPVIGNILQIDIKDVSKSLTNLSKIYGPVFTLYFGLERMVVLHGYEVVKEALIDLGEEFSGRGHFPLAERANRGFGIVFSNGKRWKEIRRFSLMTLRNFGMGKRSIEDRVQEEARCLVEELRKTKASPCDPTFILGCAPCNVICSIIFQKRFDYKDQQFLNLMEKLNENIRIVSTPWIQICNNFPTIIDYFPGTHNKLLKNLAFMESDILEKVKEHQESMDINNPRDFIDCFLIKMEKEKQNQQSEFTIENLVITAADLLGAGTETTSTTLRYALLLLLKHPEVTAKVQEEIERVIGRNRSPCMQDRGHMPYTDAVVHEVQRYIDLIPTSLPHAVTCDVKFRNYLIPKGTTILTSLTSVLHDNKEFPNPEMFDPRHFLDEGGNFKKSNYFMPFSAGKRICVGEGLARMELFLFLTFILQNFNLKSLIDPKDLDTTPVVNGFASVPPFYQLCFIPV
# Description: as §2
# [11] = target: T4, CYP2D6 (Homo sapiens, UniProt P10635); experiment: Cytochrome P450 inhibition; type: in vitro ADME; details: probe dextromethorphan (O-demethylation), pooled human liver microsomes 0.25 mg/mL, read-out: CYP inhibition (% at 10 μM) 2D6
# T4 construct: pooled human liver microsomes were assayed at 0.25 mg/mL concentration; from tissue; host or cells: pooled human liver microsomes
# T4 sequence (P10635 whole entry): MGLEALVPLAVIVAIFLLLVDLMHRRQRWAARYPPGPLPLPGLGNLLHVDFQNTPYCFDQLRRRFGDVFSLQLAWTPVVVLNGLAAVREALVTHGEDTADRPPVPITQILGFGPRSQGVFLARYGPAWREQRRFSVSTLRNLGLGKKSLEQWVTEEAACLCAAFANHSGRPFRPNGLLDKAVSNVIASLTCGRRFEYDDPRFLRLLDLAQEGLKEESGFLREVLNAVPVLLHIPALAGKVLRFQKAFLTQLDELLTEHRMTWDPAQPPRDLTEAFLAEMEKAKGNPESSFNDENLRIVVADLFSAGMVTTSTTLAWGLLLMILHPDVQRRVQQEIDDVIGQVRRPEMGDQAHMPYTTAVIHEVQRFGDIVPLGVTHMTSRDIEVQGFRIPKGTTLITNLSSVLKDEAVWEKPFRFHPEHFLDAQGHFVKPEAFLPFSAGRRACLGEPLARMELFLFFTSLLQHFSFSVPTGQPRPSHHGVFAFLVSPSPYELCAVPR
# Description: as §2
# [12] = target: T5, CYP1A2 (Homo sapiens, UniProt P05177); experiment: Cytochrome P450 inhibition; type: in vitro ADME; details: probe phenacetin (O-deethylation), pooled human liver microsomes 0.25 mg/mL, read-out: CYP inhibition (% at 10 μM) 1A2
# T5 construct: pooled human liver microsomes were assayed at 0.25 mg/mL concentration; from tissue; host or cells: pooled human liver microsomes
# T5 sequence (P05177 1-516): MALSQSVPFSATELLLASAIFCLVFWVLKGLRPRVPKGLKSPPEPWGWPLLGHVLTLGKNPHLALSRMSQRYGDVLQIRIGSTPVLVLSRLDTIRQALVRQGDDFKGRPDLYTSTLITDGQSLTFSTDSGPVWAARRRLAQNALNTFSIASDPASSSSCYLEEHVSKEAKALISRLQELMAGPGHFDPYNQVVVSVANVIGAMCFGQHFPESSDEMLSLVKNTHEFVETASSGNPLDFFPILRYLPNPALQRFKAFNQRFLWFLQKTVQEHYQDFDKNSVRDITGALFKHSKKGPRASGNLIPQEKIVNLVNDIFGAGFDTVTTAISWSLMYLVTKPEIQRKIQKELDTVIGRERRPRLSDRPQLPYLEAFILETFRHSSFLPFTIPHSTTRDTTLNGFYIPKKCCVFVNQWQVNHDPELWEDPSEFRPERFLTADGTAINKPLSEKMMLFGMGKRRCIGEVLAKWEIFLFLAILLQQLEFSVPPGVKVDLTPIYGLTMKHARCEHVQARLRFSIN
# Description: as §2
# [13] = target: T6, CYP2C9 (Homo sapiens, UniProt P11712); experiment: Cytochrome P450 inhibition; type: in vitro ADME; details: for CYP enzyme selectivity of inhibition: five P450 enzymes, 10 μM; for inhibition at 10 min, 10 µM: probe tolbutamide (4-hydroxylation), pooled human liver microsomes 0.25 mg/mL, tolbutamide, read-out: CYP inhibition (% at 10 μM) 2C9
# T6 construct: pooled human liver microsomes were assayed at 0.25 mg/mL concentration; from tissue; host or cells: pooled human liver microsomes
# T6 sequence (P11712 whole entry): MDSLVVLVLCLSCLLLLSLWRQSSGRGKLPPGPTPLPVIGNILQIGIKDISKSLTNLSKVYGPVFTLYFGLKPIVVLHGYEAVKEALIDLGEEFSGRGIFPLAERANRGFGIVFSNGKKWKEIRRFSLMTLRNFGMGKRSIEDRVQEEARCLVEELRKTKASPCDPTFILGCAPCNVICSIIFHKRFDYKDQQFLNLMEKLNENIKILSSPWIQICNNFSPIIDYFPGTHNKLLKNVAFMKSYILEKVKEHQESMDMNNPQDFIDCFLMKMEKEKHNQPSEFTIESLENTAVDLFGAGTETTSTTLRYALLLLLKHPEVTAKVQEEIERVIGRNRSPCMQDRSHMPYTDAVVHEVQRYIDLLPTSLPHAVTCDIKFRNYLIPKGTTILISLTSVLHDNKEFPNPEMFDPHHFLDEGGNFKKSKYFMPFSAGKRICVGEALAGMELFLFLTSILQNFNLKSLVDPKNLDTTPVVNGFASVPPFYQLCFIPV
# Description: as §2
# [14] = NIC7 100 nmol/g intraperitoneally
# [15] = donepezil 1 mg/kg intraperitoneally
molecule,measurement,setting,value
CC1CC(=O)c2s/c(=N\C3CCCCC3)oc2C1 (centres unmarked) [BOT-4-one],IC50,[1],590 to 1280 nM
Cc1ccc(S(=O)(=O)/C=C/C#N)cc1 [Bay 11-7082],IC50,[1],~5000 nM
O=C(O)c1ccc(/C=C2/SC(=S)N(Cc3cccc(C(F)(F)F)c3)C2=O)cc1 [CY-09],IC50,[2],~5000 nM
O=[N+]([O-])/C=C/c1ccc2c(c1)OCO2 [MNS],IC50,[2],~2000 nM
"CC(=O)c1cccc(NC(=O)Nc2ccc3sc(NS(=O)(=O)c4ccc(C)cc4)nc3c2)c1 [NIC7, N-(5-(3-(3-acetylphenyl)ureido)benzo[d]thiazol-2-yl)-4-methylbenzenesulfonamide]","Y-maze test, spatial working memory",[3]; [14],spent more time in the novel arm
same,body weight,[4],significantly increased
same,inhibition of IL-1β and caspase 1 (Western blot),[5],inhibition
same,recognition index rate (novel object recognition test),[6]; [14],better
same,inhibition of IL-1β secretion caused by NLRP3,[7],highest potency; also recorded: significant inhibition
same,metabolic stability versus positive control compound,[8],better half-life and stability than a positive control compound
same,Microsomal stability (% at 30 min),[8],Human: 19.7%
same,"inhibition at 10 min, 10 µM",[9],< 1%
same,"inhibition at 10 min, 10 µM",[10],< 1%
same,"inhibition at 10 min, 10 µM",[11],9.8%
same,"inhibition at 10 min, 10 µM",[12],< 1%
same,CYP enzyme selectivity of inhibition,[13],acted mainly on CYP2C9 enzyme and hardly acted on other types of CYP enzymes
same,"inhibition at 10 min, 10 µM",[13],34.2%
"Cc1ccc(S(=O)(=O)Nc2nc3cc(NC(=O)NCc4ccccc4)ccc3s2)cc1 [NIC7w, N-(5-(3-benzylureido)benzo[d]thiazol-2-yl)-4-methylbenzenesulfonamide]",inhibition of IL-1β and caspase 1 (Western blot),[5],inhibition
same,inhibition of IL-1β secretion caused by NLRP3,[7],"most potent inhibition; also recorded: in a dose-dependent manner, more strongly and significantly than NIC7"
same,metabolic stability versus positive control compound,[8],better half-life and stability than a positive control compound
same,Microsomal stability (% at 30 min),[8],Human: 49.5%
same,increase of amount of drug remaining after 30 minutes of metabolism compared to NIC7,[8]; human liver microsomes,29.8%
same,"inhibition at 10 min, 10 µM",[9],< 1%
same,"inhibition at 10 min, 10 µM",[10],15.4%
same,"inhibition at 10 min, 10 µM",[11],9.1%
same,"inhibition at 10 min, 10 µM",[12],< 1%
same,CYP enzyme selectivity of inhibition,[13],acted mainly on CYP2C9 enzyme and hardly acted on other types of CYP enzymes
same,"inhibition at 10 min, 10 µM",[13],39.4%
CS(=O)(=O)CCC#N [OLT1177],IC50,[2],~1000 nM
"COc1cc2c(cc1OC)C(=O)C(CC1CCN(Cc3ccccc3)CC1)C2 (centres unmarked) [donepezil, reference compound]","Y-maze test, spatial working memory",[3]; [15],spent more time in the novel arm
same,recognition index rate (novel object recognition test),[6]; [15],better
NBC6,IC50,[2],~574 nM
